{"source": "patent US12616713B2", "about": "“Methods for enhancing vascular density” (priority 2016, dated 2026)", "key": {"[1]": {"test": "Food and water intake, body weight and composition, motor and cardiac function of treated old mice", "assay_type": "in vivo, mouse", "conditions": "18-month old mice, NMN 400 mg/kg/day in drinking water, two months", "from_the_text": "SIRT1-iKO, SIRT1-Tg and SIRT1^STOP mice were described previously (Firestein et al., 2008, PLoS One 3, e2020; Price et al., 2012, Cell Metab 15, 675-690). Tie2Cre and Sirt1^flox/flox mice were purchased from Jackson Laboratory (Bar Harbor, ME). MCK-PGC-1α and MyogCre mice were gifts from Dr. Bruce Spiegelman (Dana Farber Cancer Center, MA) and Dr. Eric N. Olson (UT Southwestern, Dallas, TX), respectively. mT-STOP^flox/flox, Gfp mouse was generated in house by E.O.W., which consists of an allele driven by ubiquitous actin B promoter, which has loxP sites flanking membrane-targeted tandem dimer Tomato (mT) and transcriptional STOP cassette, followed by a GFP coding sequence. […] Mice were fasted for 6 h and blood glucose levels were measured by tail bleed (Accu Check Performa, Roche). Blood lactate was measured before and immediately after treadmill exercise training for 20 minutes at 15 meters/minute by tail bleed (Accutrend Plus, Roche). […] Urine was collected after a 2 h fast and analyzed for creatinine levels using a colorimetric assay kit (Cayman chemical, US) as per manufacturer's protocol. Motor coordination was assessed using the rotarod test as previously described ([…] et al., 2011, Plos One 6, e20336). […] On the 4th day, the animals were subjected to three trials on the accelerating roller (4-40 rpm in 4 min) and the time that the mice remained was recorded. […]"}, "HUVECs": {"tested_on": "HUVECs", "test": "Cell proliferation assay, HUVECs", "assay_type": "cell-based, human", "conditions": "NMN 500 μM, 48 h, complete growth medium", "procedure": "ECs (0.1×10^5 cells) were seeded in a 48-well plate and incubated with PBS (vehicle) or NMN (500 μM) in complete growth medium for 48 h. At the end of the incubation time, the cells were harvested and resuspended in Opti-MEM medium. Cell number was determined using flow cytometry (FACSCanto II Analyzer, BD Biosciences, USA)."}, "Notch signaling": {"tested_on": "Notch signaling", "test": "Notch target genes and NICD in VEGF- or Dll4-stimulated HAECs", "assay_type": "cell-based, human", "procedure": "Dll4 and VEGF stimulation of ECs. The ECs to be stimulated were serum-starved overnight and transferred to media containing VEGF (50 ng/mL) or to Dll4-coated plates, and then incubated for indicated time. Dll4 coating was performed as described before (Guarani et al., 2011, Nature 473, 234-238). Lyophilized recombinant Dll4 (R&D Systems) were reconstituted in PBS containing 0.1% bovine serum albumin. The culture dishes were coated with Dll4 (0.5 μg/mL) in 0.1 gelatin solution for 1 hr at 37° C.\nTotal mRNA was isolated from cells and tissues using TRIzol (Life Technologies). cDNAs were synthesized from 1 μg of total RNA using M-MLV reverse transcriptase (Biorad). qPCR was performed with LightCycler […] SYBR Green I Mastermix (Roche) using the LightCycler 480 System (Roche) according to the manufacturer's instructions. Relative mRNA expression levels were calculated using the ΔΔCt method.\nSDS-PAGE and Western blot analysis were performed according to standard procedures and detected with the ECL detection kit (Bio-rad, Australia). […] Quantification of band intensities by densitometry was carried out using ImageJ software."}, "C57BL/6J mice": {"tested_on": "C57BL/6J mice", "test": "TUNEL and CD31 co-staining of quadriceps capillaries", "assay_type": "in vivo, mouse", "conditions": "aged quadriceps tissue, four weeks treatment; untreated 42%", "procedure": "Freshly isolated whole quadriceps and gastrocnemius muscle samples were mounted in OCT compound (Tissue-Tek), placed in an isopentane bath and slowly cooled in liquid nitrogen. Transverse sections at 20 μm-thickness were sectioned on a cryostat (Leica). The sections were fixed in pre-cooled acetone (−20° C.) for 10 min and washed with PBS. Slides were then blocked in normal goat serum and 5% Blocking Reagent (PerkinElmer) in PBST (PBS with 0.1% Triton-X) for 1 h at room temperature, and then incubated with anti-CD31 (ab56299, Abcam) and anti-Laminin (L9393, Sigma), GFP (ab6556, Abcam) or SIRT1 (HPA006295, Sigma) antibodies diluted in blocking buffer overnight at 4° C. Slides were washed with PBST and then incubated with anti-rat Alexa Fluor 488-conjugated (Life Technologies) and anti-rabbit Alexa Fluor 594-conjugated (Life Technologies) antibodies diluted to 1:500 in blocking buffer for 2 h at room temperature. Slides were washed again with PBST and mounted with Fluoroshield with DAPI mounting medium (Sigma). Images were acquired using a confocal fluorescence microscope (Nikon A1). Quantification of capillaries and capillary density were performed using ImageJ software. TUNEL staining was performed in muscle sections using in situ BrdU-Red DNA fragmentation (TUNEL) assay kit (Abcam) as per manufacturer's protocol."}}, "note": "Entries after “also recorded” stand apart in the source; their conditions may differ."}
{"molecule": "NC(=O)c1ccc[n+]([C@@H]2O[C@H](COP(=O)([O-])O)[C@@H](O)[C@H]2O)c1", "note": "[NMN, nicotinamide mononucleotide]", "values": [{"measurement": "food intake, water consumption, body weights, body composition, motor learning skills and cardiac function", "setting": "[1]", "result": "had no effect"}, {"measurement": "cell growth (relative cell number)", "setting": "HUVECs", "result": "promoted cell growth; also recorded: induced proliferation"}, {"measurement": "NICD protein levels", "setting": "Notch signaling; VEGF- or Dll4-stimulated HAECs, NMN 0.5 mM", "result": "promoted NICD reduction"}, {"measurement": "Notch target gene expression", "setting": "Notch signaling; after stimulation with VEGF (50 ng/mL) or Dll4, NMN 0.5 mM", "result": "significantly decreased"}, {"measurement": "number of capillaries with apoptotic cells", "setting": "C57BL/6J mice", "result": 17, "unit": "%"}]}
